Test results as given in ChEMBL document CHEMBL1128861 (Bioorg Med Chem Lett, 1995).

How the values were obtained:
[1] = biological target: 5-hydroxytryptamine receptor 2A (Rattus norvegicus) (UniProt P14842); assay: Affinity for 5-HT2A receptor of rat tail artery; assay type: tissue-based
[2] = biological target: Histamine H1 receptor (Cavia porcellus) (UniProt P31389); assay: Affinity for H1 histamine receptor of guinea pig ileum; assay type: tissue-based
[3] = biological target: Serotonin 3 (5-HT3) receptor (Homo sapiens) (UniProt P46098+A5X5Y0+O95264+Q70Z44+Q8WXA8); assay: Binding affinity against 5-hydroxytryptamine 3 receptor of guinea pig ileum; assay type: tissue-based; conditions: Cavia porcellus, target entry is the homologue from another species
[4] = biological target: Muscarinic acetylcholine receptor M3 (Cavia porcellus) (UniProt Q8VH26); assay: Affinity for ileal muscarinic M3 receptor of guinea pig ileum; assay type: tissue-based
[5] = biological target: T1, Adrenergic receptor alpha-1 (Rattus norvegicus, UniProt P15823+P23944+P43140); assay: Antagonism against Alpha-1 adrenergic receptor of rat aorta; assay type: functional, tissue-based
T1 sequence (P15823 whole entry): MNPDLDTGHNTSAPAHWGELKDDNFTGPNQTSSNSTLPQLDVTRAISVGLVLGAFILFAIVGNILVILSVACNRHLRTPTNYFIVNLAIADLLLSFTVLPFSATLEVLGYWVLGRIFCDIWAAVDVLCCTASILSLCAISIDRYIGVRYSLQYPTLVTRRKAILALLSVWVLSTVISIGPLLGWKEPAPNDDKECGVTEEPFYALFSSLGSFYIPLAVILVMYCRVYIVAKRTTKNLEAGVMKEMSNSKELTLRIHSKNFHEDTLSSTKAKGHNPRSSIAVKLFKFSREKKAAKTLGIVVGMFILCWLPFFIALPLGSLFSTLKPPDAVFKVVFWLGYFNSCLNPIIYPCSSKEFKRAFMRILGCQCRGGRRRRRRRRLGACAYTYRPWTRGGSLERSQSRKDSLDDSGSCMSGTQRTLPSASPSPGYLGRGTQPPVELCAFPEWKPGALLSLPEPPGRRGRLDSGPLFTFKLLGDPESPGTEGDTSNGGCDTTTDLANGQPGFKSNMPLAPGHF
T1 sequence (P23944 whole entry): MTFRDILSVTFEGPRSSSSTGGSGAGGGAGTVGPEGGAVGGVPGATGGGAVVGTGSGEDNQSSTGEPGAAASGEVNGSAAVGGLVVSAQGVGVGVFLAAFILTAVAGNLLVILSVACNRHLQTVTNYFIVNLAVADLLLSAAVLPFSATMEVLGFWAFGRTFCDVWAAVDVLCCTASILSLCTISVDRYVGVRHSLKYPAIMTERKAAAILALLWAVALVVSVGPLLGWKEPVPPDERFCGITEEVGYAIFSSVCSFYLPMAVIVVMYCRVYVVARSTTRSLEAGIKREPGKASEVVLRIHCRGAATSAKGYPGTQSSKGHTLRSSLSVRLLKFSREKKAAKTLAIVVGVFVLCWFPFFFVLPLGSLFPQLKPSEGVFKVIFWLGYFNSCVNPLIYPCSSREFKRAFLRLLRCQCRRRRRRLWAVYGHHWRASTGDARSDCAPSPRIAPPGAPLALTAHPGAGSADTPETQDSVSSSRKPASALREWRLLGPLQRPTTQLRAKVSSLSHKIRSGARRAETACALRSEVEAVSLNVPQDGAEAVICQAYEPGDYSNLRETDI
T1 sequence (P43140 whole entry): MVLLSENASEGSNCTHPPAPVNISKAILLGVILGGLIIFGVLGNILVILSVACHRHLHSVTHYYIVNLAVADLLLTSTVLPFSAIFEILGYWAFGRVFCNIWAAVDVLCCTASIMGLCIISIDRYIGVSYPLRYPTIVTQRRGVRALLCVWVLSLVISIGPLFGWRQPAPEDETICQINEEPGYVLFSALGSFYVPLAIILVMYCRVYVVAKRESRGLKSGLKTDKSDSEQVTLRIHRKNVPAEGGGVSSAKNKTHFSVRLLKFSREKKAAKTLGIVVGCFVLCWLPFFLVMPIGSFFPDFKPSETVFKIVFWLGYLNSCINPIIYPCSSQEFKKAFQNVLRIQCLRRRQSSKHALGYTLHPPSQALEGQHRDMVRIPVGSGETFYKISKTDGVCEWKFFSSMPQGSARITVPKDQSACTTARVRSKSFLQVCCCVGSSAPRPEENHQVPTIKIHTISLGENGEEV

[6] = biological target: Adrenergic receptor alpha-1 (Rattus norvegicus) (UniProt P15823+P23944+P43140); assay: Affinity for Alpha-1 adrenergic receptor of rat aorta; assay type: tissue-based
[7] = biological target: T2, 5-hydroxytryptamine receptor 2A (Rattus norvegicus, UniProt P14842); assay: Binding affinity towards 5-HT2A receptor of rat tail artery; assay type: tissue-based
[8] = biological target: T2, 5-hydroxytryptamine receptor 2A; assay: Antagonism of 5-HT2A receptor of rat tail artery; assay type: functional, tissue-based; conditions: read-out: pA2 (converted)
[9] = biological target: Histamine H1 receptor (Cavia porcellus, UniProt P31389); assay: Antagonism against H1 histamine receptor of guinea pig ileum; assay type: functional, tissue-based; conditions: read-out: pA2 (converted)
[10] = biological target: Muscarinic acetylcholine receptor M3 (Cavia porcellus) (UniProt Q8VH26); assay: Binding affinity against ileal muscarinic M3 receptor of guinea pig ileum; assay type: tissue-based
[11] = biological target: 5-hydroxytryptamine receptor 2A (Rattus norvegicus) (UniProt P14842); assay: Binding affinity against 5-HT2A receptor of rat tail artery; assay type: tissue-based

Histamine H1 receptor (Cavia porcellus), sequence (P31389 whole entry): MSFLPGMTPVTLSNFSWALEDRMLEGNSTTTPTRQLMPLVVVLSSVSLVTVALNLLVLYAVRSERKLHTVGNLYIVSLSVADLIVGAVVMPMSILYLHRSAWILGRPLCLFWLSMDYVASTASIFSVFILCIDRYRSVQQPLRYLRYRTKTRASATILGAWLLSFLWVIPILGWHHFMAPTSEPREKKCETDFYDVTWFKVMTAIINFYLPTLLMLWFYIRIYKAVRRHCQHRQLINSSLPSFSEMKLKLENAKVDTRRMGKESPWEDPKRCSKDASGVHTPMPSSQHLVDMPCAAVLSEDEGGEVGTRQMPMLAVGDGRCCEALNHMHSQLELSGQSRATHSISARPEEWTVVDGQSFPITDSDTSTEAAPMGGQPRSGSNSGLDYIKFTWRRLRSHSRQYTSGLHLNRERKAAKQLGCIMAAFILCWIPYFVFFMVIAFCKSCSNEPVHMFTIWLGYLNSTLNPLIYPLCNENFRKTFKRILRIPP
5-hydroxytryptamine receptor 2A (Rattus norvegicus), sequence (P14842 whole entry): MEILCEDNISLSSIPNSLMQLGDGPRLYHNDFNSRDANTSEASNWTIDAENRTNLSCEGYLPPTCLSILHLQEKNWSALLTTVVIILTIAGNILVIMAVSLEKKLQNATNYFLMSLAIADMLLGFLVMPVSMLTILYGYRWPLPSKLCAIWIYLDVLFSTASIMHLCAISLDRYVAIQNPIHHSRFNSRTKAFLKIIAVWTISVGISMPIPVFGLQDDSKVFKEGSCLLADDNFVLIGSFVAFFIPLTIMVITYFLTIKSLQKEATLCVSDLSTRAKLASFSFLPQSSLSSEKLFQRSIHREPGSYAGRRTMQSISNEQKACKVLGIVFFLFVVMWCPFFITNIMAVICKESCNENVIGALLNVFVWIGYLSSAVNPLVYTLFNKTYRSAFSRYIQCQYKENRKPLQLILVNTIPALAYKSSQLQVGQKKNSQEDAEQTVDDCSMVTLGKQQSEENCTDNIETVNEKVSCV
T2 sequence (P14842 whole entry): as above
Muscarinic acetylcholine receptor M3 (Cavia porcellus), sequence (Q8VH26 1-587): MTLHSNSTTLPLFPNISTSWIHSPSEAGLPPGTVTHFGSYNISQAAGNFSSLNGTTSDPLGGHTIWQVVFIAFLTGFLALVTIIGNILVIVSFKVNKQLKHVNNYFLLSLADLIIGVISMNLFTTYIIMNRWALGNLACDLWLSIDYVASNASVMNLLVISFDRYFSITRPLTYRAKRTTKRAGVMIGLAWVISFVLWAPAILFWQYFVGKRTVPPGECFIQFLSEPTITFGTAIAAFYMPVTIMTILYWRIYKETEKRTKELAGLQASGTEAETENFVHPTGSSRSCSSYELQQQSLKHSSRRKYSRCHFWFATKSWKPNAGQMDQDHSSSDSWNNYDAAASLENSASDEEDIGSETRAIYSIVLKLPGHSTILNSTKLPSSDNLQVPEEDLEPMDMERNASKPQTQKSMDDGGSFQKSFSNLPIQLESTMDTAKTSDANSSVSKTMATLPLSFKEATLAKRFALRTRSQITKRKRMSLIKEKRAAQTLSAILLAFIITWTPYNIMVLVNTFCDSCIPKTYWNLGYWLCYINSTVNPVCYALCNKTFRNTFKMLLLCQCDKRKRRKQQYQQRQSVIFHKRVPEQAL
Histamine H1 receptor, sequence (P31389 whole entry): as the sequence (P31389 whole entry) above

pKB [1]	pKB [2]	pKB [3]	pKB [4]	pKB [6]	Kb [8] [nM]	Compound	further results
6.75						Cn1c2c(c3ccccc31)C(=O)C(CNCCc1c[nH]cn1)CC2 (configuration not stated)	
7.8	6.19	< 5.2	4.72			Cn1c2c(c3ccccc31)C(=O)C(CN1CCN(c3ccccc3F)CC1)CC2 (configuration not stated)	pA2 [5]: 8.75
					525	O=C(c1ccc(F)cc1)C1CCNCC1	Ki [7]: 398 nM
5.98	5.69	< 5.3	4.98	6.11		Cn1c2c(c3ccccc31)C(=O)C(CN1CCCCC1)CC2 (configuration not stated)	
6.3	7.41		5.7	5.81		Cn1c2c(c3ccccc31)C(=O)C(CN1CCC(=C(c3ccc(F)cc3)c3ccc(F)cc3)CC1)CC2 (configuration not stated)	pD2 [3]: 6.08
6.59						Cn1c2c(c3ccccc31)C(=O)C(CNCc1ncc[nH]1)CC2 (configuration not stated)	
	6.74	< 5.5	5.55	7.8	2.51	Cn1c2c(c3ccccc31)C(=O)C(CN1CCN(c3ccc(F)cc3)CC1)CC2 (configuration not stated)	
5.5	5.9	< 5.7	4.68	6.45		CN(CCn1c(=O)[nH]c2ccccc2c1=O)CC1CCc2c(c3ccccc3n2C)C1=O (configuration not stated)	
6.73						Cn1c2c(c3ccccc31)C(=O)C(CNc1ncc[nH]1)CC2 (configuration not stated)	
					0.617	Cn1c2c(c3ccccc31)C(=O)C(CN1CCC(C(=O)c3ccc(F)cc3)CC1)CC2 (racemic) [listing 2 of 2 here]	

Continued, molecule first:

Compound	pKB [1]	pKB [2]	pKB [3]	pKB [4]	pKB [6]	Kb [8] [nM]	further results
Cn1c2c(c3ccccc31)C(=O)C(CN1CCC(C(=O)c3ccc(F)cc3)CC1)CC2 (stereo in doubt; (-)-13) [listing 1 of 2 here]		6.74			8.08		
Cn1c2c(c3ccccc31)C(=O)C(CN1CC=C(c3c[nH]c4ccc(F)cc34)CC1)CC2 (configuration not stated)	7.22	6.6			6.49		
Cn1c2c(c3ccccc31)C(=O)C(CN1CCC(C(=O)c3ccc(F)cc3)CC1)CC2 (racemic) [listing 1 of 2 here]		6.92	< 5.7	5.19	7.96		
Cn1c2c(c3ccccc31)C(=O)C(CN1CCC(c3ccccc3)CC1)CC2 (configuration not stated)	8.43	6.4	< 5.2	4.97	7.58		
O=C(c1ccc(F)cc1)C1CCN(CCn2c(=O)[nH]c3ccccc3c2=O)CC1 [KETANSERIN]				4.18			Kb [9]: 1.41 nM; pA2 [5]: 8.09
Cn1c2c(c3ccccc31)C(=O)C(CN1CCC(C(=O)c3ccc(F)cc3)CC1)CC2 (single isomer, unassigned; (+)) [listing 1 of 2 here]		6.82			7.28		
COc1ccc2[nH]cc(C3=CCN(CC4CCc5c(c6ccccc6n5C)C4=O)CC3)c2c1 (configuration not stated)	6.09	6.31			6.59		
Cn1c2c(c3ccccc31)C(=O)C(CN1CCC(C(=O)c3ccc(F)cc3)CC1)CC2 (stereo in doubt; (-)-13) [listing 2 of 2 here]						0.437	
Cn1c2c(c3ccccc31)C(=O)C(CN1CC=C(c3c[nH]c4ccccc34)CC1)CC2 (configuration not stated)		6.62			7.58	6.31	
Cc1nccn1CC1CCc2c(c3ccccc3n2C)C1=O (configuration not stated)		4.37			5.29		pKB [10]: 4.72; pKB [11]: 4.66
Cn1c2c(c3ccccc31)C(=O)C(CN1CCC(C(=O)c3ccc(F)cc3)CC1)CC2 (single isomer, unassigned; (+)) [listing 2 of 2 here]						64.6	
Cn1c2c(c3ccccc31)C(=O)C(CN1CCC(C(=O)c3ccccc3)CC1)CC2 (configuration not stated)		6.53	< 5.5	5.01	7.36	4.57	
